Consider 1 molecule from patent US4374284A, “Antiulcer, antiinflammatory, and antiallergic agent comprising as the main ingredient olean-12-ene-3β, 30-diol which is devoid of side effects of glycyrrhetinic acid and a new process for preparation of olean-12-ene-3β, 30-diol” (Minophagen Pharmaceutical Company, priority 1980, dated 1983).

Entries after “also recorded” stand apart in the source; their conditions may differ.

The inhibition is the relative decrease from the control value, in per cent. High values mean a response far below the control, low ones a response near the control. As usually defined, the LD50 is the dose expected to kill half of the subjects tested.

Series [1] relates to rat paw edema induced with carrageenin. The experiment in a line: test on rat paw edema induced with carrageenin (antiinflammatory). The class given is in vivo, male Wister rats. Here is the method: (a) Test on rat paw induced with carrageenin
To the plantar side of the hind paw of male Wister rats was administered subcutaneously 0.05 ml/rat of 10% saline solution of carrageenin. Edema after three hours was measured by the volume method and the rate of inhibition was assayed. Compounds were administered orally 30 minutes before administration of carrageenin. [formula]

For series [2], the system named is Arthus phenomenon (type III allergy). As to the kind of experiment: Arthus phenomenon test (type III allergy). The class given is in vivo, female guinea pig. Here is the method: (b) Arthus phenomenon test (type III allergy)
To the back part of female guinea pig weighing 250-300 g, 10 mg/kg of egg albumin was administered subcutaneously. After 21 days, 2 mg/kg of egg albumin was administered intravenously, whereby death of the guinea pig due to anaphylactic shock was recognized to confirm establishment of sensitization. Thirty minutes after compounds to be tested were administered intraperitoneally, 0, 10, 100, 1000 μg/0.1 ml of egg albumin were each administered to the abdominal part which had been shaved.

The nature of series [3]: acute toxicity test. To be noted: mouse, in vivo. The class given is in vivo, male mice (ddY). On the procedure:
(§1) To male mice (ddY) weighing 24 g-26 g, 10 mice in one group, compounds to be tested (suspended in Tween 80) in various doses of the ratio (1, 2) were administered (orally and intraperitoneally), and LD50 was determined by the Litchfield-Wilcoxon method.

The test system of series [4] is mice. The experiment in a line: acute toxicity test. The class given is in vivo, male mice (ddY). To be noted: oral and intraperitoneal. On the procedure: as §1
In series [5] the test system is aspirin-induced ulcer. As to the kind of experiment: rat experiment on aspirin-induced ulcer, oral (experiment b). Format: in vivo, male Wister rats. Here is the method:
(b) Experimental procedures:
Male Wister rats weighing 120-140 g were made to fast for 24 hours, and compounds to be tested were administered orally. After 5 hours, the rats were killed by a blow. The stomach was excised and observed for the presence of ulcer.
The size of ulcer was measured by ulcer index (ulcer length×width mm^2).

For series [6], the system named is PCA reaction (type I allergy). As to the kind of experiment: PCA test (type I allergy). The class given is in vivo, male Wister rats. On the procedure:
(a) PCA--Test (type I allergy)
Male Wister rats weighing […] were shaved at the abdomen. After 24 hours, 0.05 ml of serum diluted with saline (Blood samples were diluted to 1/32 and 1/64; The blood samples were collected from rats 3 weeks after administration of pertussis vaccine and egg albumin.) was injected intradermally at the abdomen. After 48 hours, compounds to be tested were administered intraperitoneally. Two hours thereafter, 0.5 ml./100 g of a solution of antigen and pigment (a solution of 0.4% egg albumin and 0.5% Pontamine sky blue) was administered. After 45 minutes, the rats were decapitated and bled, and the diameter of the pigment-leaking site under the skin was measured to obtain the area.

`CC1(C)[C@@H](O)CC[C@]2(C)[C@H]3CC=C4[C@@H]5C[C@@](C)(CO)CC[C@]5(C)CC[C@@]4(C)[C@]3(C)CC[C@@H]12` [I, olean-12-ene-3β, 30-diol] showed an edema % in series [1] (200 mg/kg p.o., after three hours, control 71 ± 6) of 52 ± 5%. For the same molecule, the inhibition at 200 mg/kg in series [1] (Rattus norvegicus, po, 3 h, edema, 200 mg/kg p.o., after three hours) came out at 26.8%. Besides, the “inhibitory activity against inflammation (in words)” value in series [1] (rat, in vivo) is “has an inhibitory activity against inflammation, but the activity is inferior to that of aspirin; also recorded: will not affect the inhibitory activity of aspirin”. Further, the area in series [2] (egg albumin 10 μg/0.1 ml, 100 mg/kg intraperitoneally, control 0) is recorded as 0 mm^2; in series [2] (egg albumin 10 μg/0.1 ml, 200 mg/kg intraperitoneally, control 0), 0 mm^2; in series [2] (egg albumin 100 μg/0.1 ml, 100 mg/kg intraperitoneally, control 110 ± 67) it was 98 ± 98 mm^2; in series [2] (egg albumin 100 μg/0.1 ml, 200 mg/kg intraperitoneally, control 110 ± 67) it was 30 ± 30 mm^2; in series [2] (egg albumin 1000 μg/0.1 ml, 100 mg/kg intraperitoneally, control 409 ± 130), 334 ± 174 mm^2; in series [2] (egg albumin 1000 μg/0.1 ml, 200 mg/kg intraperitoneally, control 409 ± 130) it was 76 ± 62 mm^2. For the same molecule, the area in series [6] (serum 1/32, 100 mg/kg intraperitoneally, control 35.2 ± 5.3) was 22.3 ± 9.1 mm^2; in series [6] (serum 1/64, 100 mg/kg intraperitoneally, control 16.4 ± 2.8), 6.8 ± 4.6 mm^2; in series [6] (serum 1/64, 200 mg/kg intraperitoneally, control 16.4 ± 2.8), 6.3 ± 4.8 mm^2. The LD50 in series [3] (ip, intraperitoneal administration) was above 4000 mg/kg; in series [3] (oral administration), above 5000 mg/kg. Also, in series [4], the “acute toxicity (in words)” value is “very low toxicity”. Besides, in series [5] (200 mg/kg p.o., after 5 hours, control 0), the “ulcer index (ulcer length×width)” value was 0 mm^2. Moreover, the “effect on ulcer, experiment (b) (in words)” value in series [5] (rat, in vivo) was “did not produce ulcer and inhibited the development of ulcer induced by aspirin”. Besides, the “PCA activity compared with (II) (in words)” value in series [6] (serum diluted to 1/64) is given as “a little stronger than that of (II)”.
